Several values for one entry are separate records, joined by “and”; a condition that tells them apart may be missing. Equal entries are not always repeated. Entries after “also recorded” stand apart in the source; their conditions may differ. Structures can show the parent of a compound that is named as a salt. Where two headings read alike, the source gives them in different places. Starred links: 1 amine or outer side, 2 acyl side, 3 side chain; linkers in the order of their positions; H or OH if unused. Positions of bridges follow the written chain, without caps; N, C: chain ends. Non-standard residues stand in square brackets, D forms with d. Residues, ends and D or L forms follow the SMILES beside them. Chains are numbered I, II in the order given. Actinocin(9to1) = Cc1c2oc3c(C)ccc(C(=O)[*:1])c3nc-2c(C(=O)[*:2])c(N)c1=O; NMeV = CN[C@H](C(=O)O)C(C)C; Sar = CNCC(=O)O
What was measured:
human α9α10 nAChRs [1] = molecular target: T1, human α9α10 nAChRs (Homo sapiens, UniProt Q9GZZ6+Q9UGM1); assay: Desensitization to 15 s pulse of ACh in calcium or barium saline; type: cell-based; details: for peak current amplitude in response to ACh: 15 s pulse of EC50 ACh, oocytes incubated in saline only
T1 construct: expressed in transfected cells; host or cells: Xenopus laevis oocytes co-injected with α9 and α10 cRNAs (1:1)
Description: (§1) Similar to the results presented in Figure 2, peak ACh-evoked currents from α10 nAChRs were reduced in the presence of barium compared to calcium (Figures 10A,B). […] By contrast with α10 nAChRs, α9α10 currents were much smaller in the presence of barium compared to calcium (Figures 10C,D). Furthermore, α9α10 nAChRs desensitized more slowly than α10 nAChRs.

human α10 nAChRs [2] = molecular target: T2, human α10 nAChRs (Homo sapiens, UniProt Q9GZZ6); type: cell-based; parameters: expressed in transfected cells
human α10 nAChRs [3] = molecular target: T2, human α10 nAChRs; assay: Desensitization to 15 s pulse of ACh in calcium or barium saline; type: cell-based; parameters: expressed in transfected cells; details: for peak current amplitude in response to ACh: 15 s pulse of EC50 ACh, oocytes incubated in STR (20 μM)
Description: as §1

human α10 nAChRs [4] = molecular target: T2, human α10 nAChRs; assay: Agonist activation of α10 nAChRs, concentration-response in oocytes; parameters: Emax: dose or concentration left out as unconfirmed
Description: For the assessment of ligand activity, the oocyte membranes were clamped at a holding potential of −70 mV and continuously perfused with saline (control solution). […] Ligands were applied in this manner for concentrations up to 1 µM.

human α10 nAChRs [5] = molecular target: T2, human α10 nAChRs; details: ACh 1 mM
Description: For the assessment of ligand activity, the oocyte membranes were clamped at a holding potential of −70 mV and continuously perfused with saline (control solution). […] Ligands were applied in this manner for concentrations up to 1 µM. […] For experiments examining the desensitization kinetics of α10-containing nAChRs, sibling oocytes were injected with 25 ng of cRNA for α10 subunits or cRNA for α9 and α10 subunits (25 ng each). Actinomycin-D (1 µM) was also used in some experiments to prevent RNA transcription and inhibit the expression of endogenous chloride channels. The oocytes were incubated in actinomycin-D for 36 h prior to assessment with TEVC electrophysiology.

human α10 nAChRs [6] = molecular target: T2, human α10 nAChRs; assay: cell-based; type: cell-based; parameters: expressed in transfected cells; details: for ACh response in presence of ligand, of control values: oocytes incubated with BRU (20 μM)
human α10 nAChRs [7] = molecular target: T2, human α10 nAChRs; assay: Decay of ACh-evoked currents of ligand-incubated oocytes during saline perfusion (one-phase exponential plateau); details: oocytes treated 3 days with 20 μM ligand; ACh 1 mM; calculated plateau, 95% CI in parentheses
human α9α10 nAChRs [8] = molecular target: T1, human α9α10 nAChRs; assay: cell-based
[9] = tested on: X. laevis oocytes injected with water
human α9 nAChRs = human α9 nAChRs (Homo sapiens, UniProt Q9UGM1)
[10] = oocytes treated 3 days with 20 μM ligand, ACh 1 mM
[11] = read-out: inhibition of ACh-evoked responses

T1 sequence (Q9UGM1 26-479 limits assumed): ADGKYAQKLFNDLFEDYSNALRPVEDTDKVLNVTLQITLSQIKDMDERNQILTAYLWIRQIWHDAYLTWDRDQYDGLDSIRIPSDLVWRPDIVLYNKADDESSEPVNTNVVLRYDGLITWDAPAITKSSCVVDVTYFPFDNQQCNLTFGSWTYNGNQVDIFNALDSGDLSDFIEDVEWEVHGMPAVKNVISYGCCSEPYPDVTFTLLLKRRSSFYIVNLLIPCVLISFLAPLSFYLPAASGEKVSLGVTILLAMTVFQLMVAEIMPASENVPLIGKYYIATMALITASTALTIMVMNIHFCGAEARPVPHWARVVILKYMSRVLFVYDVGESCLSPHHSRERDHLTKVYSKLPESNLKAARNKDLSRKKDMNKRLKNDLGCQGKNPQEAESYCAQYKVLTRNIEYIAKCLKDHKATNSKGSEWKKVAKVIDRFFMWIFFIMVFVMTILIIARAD
T1 sequence (Q9GZZ6 25-450): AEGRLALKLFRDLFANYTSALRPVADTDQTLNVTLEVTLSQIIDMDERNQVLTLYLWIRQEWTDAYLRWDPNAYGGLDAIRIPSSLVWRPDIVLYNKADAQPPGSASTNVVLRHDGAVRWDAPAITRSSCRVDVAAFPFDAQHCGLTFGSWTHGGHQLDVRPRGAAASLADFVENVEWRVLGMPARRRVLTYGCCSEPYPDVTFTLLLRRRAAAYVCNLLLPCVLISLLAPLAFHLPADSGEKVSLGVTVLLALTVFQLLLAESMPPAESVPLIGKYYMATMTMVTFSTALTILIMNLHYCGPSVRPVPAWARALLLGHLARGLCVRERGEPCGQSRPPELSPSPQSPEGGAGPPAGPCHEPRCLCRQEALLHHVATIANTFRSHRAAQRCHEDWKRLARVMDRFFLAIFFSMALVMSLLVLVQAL
T2 sequence (Q9GZZ6 25-450): as above
Chain of human α9 nAChRs (Q9UGM1 26-479 limits assumed): as the sequence (Q9UGM1 26-479 limits assumed) above

CC(=O)OCC[N+](C)(C)C [ACh, acetylcholine]
peak current amplitude in response to ACh (human α9α10 nAChRs [1]; barium): −31 ± 40 nA | peak current amplitude in response to ACh (human α9α10 nAChRs [1]; calcium): −484 ± 270 nA | current at the end of the 15 s pulse of ACh (human α9α10 nAChRs [1]; barium): −23 ± 30 nA | current at the end of the 15 s pulse of ACh, of peak amplitude (human α9α10 nAChRs [1]; barium): 73 ± 8% | current at the end of the 15 s pulse of ACh (human α9α10 nAChRs [1]; calcium): −154 ± 74 nA | current at the end of the 15 s pulse of ACh, of peak amplitude (human α9α10 nAChRs [1]; calcium): 33 ± 4% | ACh-evoked current amplitude (human α10 nAChRs [2]; oocytes treated 3 days with 5 mM ligand, ACh 1 mM, ± SD): −17 ± 11 nA | peak current amplitude in response to ACh (human α10 nAChRs [3]; barium): −1,430 ± 1,424 nA | peak current amplitude in response to ACh (human α10 nAChRs [3]; calcium): −1,818 ± 1,329 nA | current at the end of the 15 s pulse of ACh (human α10 nAChRs [3]; barium): −459 ± 375 nA | current at the end of the 15 s pulse of ACh, of peak amplitude (human α10 nAChRs [3]; barium): 35 ± 11% | current at the end of the 15 s pulse of ACh (human α10 nAChRs [3]; calcium): −553 ± 396 nA | current at the end of the 15 s pulse of ACh, of peak amplitude (human α10 nAChRs [3]; calcium): 31 ± 6% | Hill Slope of activation curve (human α10 nAChRs [4]; oocytes incubated in STR (20 μM), 95% CI in parentheses): 1.1 (0.9–1.3)

Cc1c2oc3c(C)ccc(C(=O)N[C@@H]4C(=O)N[C@H](C(C)C)C(=O)N5CCC[C@H]5C(=O)N(C)CC(=O)N(C)[C@@H](C(C)C)C(=O)O[C@@H]4C)c3nc-2c(C(=O)N[C@@H]2C(=O)N[C@H](C(C)C)C(=O)N3CCC[C@H]3C(=O)N(C)CC(=O)N(C)[C@@H](C(C)C)C(=O)O[C@@H]2C)c(N)c1=O [Actino-D, actinomycin-D] (I: T[dV]P[Sar][NMeV] / II: T[dV]P[Sar][NMeV]; ester I:1-I:C, II:1-II:C; linker I:N-II:N via Actinocin(9to1))
ACh-evoked response amplitude (human α10 nAChRs [5]; sibling oocytes incubated with 1 µM actinomycin-D (and STR 20 μM), barium): −164 ± 96 nA | ACh-evoked response amplitude (human α10 nAChRs [5]; sibling oocytes incubated with 1 µM actinomycin-D (and STR 20 μM), calcium ([…])): −186 ± 96 nA

COc1cc2c(cc1OC)[C@@]13CCN4CC5=CCO[C@H]6CC(=O)N2[C@H]1[C@H]6[C@H]5C[C@H]43 [BRU, dimethoxystrychnine sulfate hydrate]
range of ACh-evoked current amplitudes (human α10 nAChRs [2]; [10]): −50 to −888 nA | ACh-evoked current amplitude (human α10 nAChRs [2]; oocytes treated 3 days with 20 μM ligand, ACh 1 mM, ± SD): −302 ± 225 nA | ACh response in presence of ligand, of control values (human α10 nAChRs [6]; ligand 100 nM perfused): 87 ± 16% | ACh response in presence of ligand, of control values (human α10 nAChRs [6]; ligand 1 μM (2nd of series 100 nM through 300 μM)): 246 ± 74% | ACh response in presence of ligand, of control values (human α10 nAChRs [6]; ligand 10 μM (3rd of series 100 nM through 300 μM)): 371 ± 101% | ACh response in presence of ligand, of control values (human α10 nAChRs [6]; ligand 100 μM (4th of series 100 nM through 300 μM)): 260 ± 102% | ACh response in presence of ligand, of control values (human α10 nAChRs [6]; ligand 300 μM perfused): 168 ± 73% | plateau to which ACh-evoked currents decay, of initial current amplitudes (human α10 nAChRs [7]): 15% and 15 (13–17) %

O=C1C[C@@H]2OCC=C3CN4CC[C@]56c7ccccc7N1[C@H]5[C@H]2[C@H]3C[C@H]46 [STR, strychnine]
ACh-evoked currents after acute application, of control values (human α9α10 nAChRs [8]): 1.0 ± 0.5% | inhibition at 20 µM (human α9α10 nAChRs [8]; [11]): ~99% | ACh-evoked current amplitude [9]: −1.6 ± 0.7 nA | ACh-evoked current amplitude after exposure to STR (human α9 nAChRs; subset of choline-incubated oocytes then incubated in STR (20 μM) for 24 h, ACh 100 μM): −2.1 ± 1.2 nA | ACh-evoked response amplitude (human α10 nAChRs [5]; oocytes treated 36 h with STR (20 μM), calcium replaced with equimolar barium): −301 ± 225 nA | ACh-evoked response amplitude (human α10 nAChRs [5]; oocytes treated 36 h with STR (20 μM), saline with calcium ([…])): −373 ± 273 nA | range of ACh-evoked current amplitudes (human α10 nAChRs [2]; [10]): −76 to −2,378 nA | ACh-evoked currents after acute application, of control values (human α10 nAChRs [6]): 52 ± 13% | IC50 (human α10 nAChRs [6]): 20.2 µM | enhancement of ACh-evoked current amplitudes (human α10 nAChRs [6]): 518 ± 411% | response to ACh after perfusion with ligand (human α10 nAChRs [6]): −294 ± 149 nA | inhibition at 20 µM (human α10 nAChRs [6]; [11]): ~50% | plateau to which ACh-evoked currents decay, of initial current amplitudes (human α10 nAChRs [7]): 74% and 74 (72–76) %

C[N+](C)(C)CCO [choline]
ACh-evoked current amplitude before exposure to STR (human α9 nAChRs): −78 ± 44 nA | Emax (human α10 nAChRs [4]; read-out: maximal response, of the calculated maximal response to ACh): 4 ± 2%

CN1CCC[C@H]1c1cccnc1 [nicotine, (-)-nicotine hydrogen tartrate]
ACh-evoked current amplitude (human α10 nAChRs [2]): −6.0 ± 6.2 nA | ACh responses in the presence of ligand (human α10 nAChRs [6]): 99 ± 8% | agonist-evoked currents (human α10 nAChRs [4]; concentrations up to 1 mM, oocytes incubated in STR (20 μM)): failed to evoke current responses; also recorded: failed to induce detectable currents

— article PMC9523446 (Frontiers in Pharmacology, 2022)
